# How the values were obtained:
# HFD-induced obese rats [1] = assay: High-fat diet-induced obesity rat model, i.c.v. OT infusion: body weight gain and food intake; type: in vivo; settings: 14 days, compared with saline
# Experimental: The beneficial metabolic effects of OT administration were assayed in the following high-fat diet-induced obesity model in rats.
# Male Wistar (300-325 g) rats were purchased from Charles River (L′Arbresle, France) and housed in individual cages under conditions of controlled temperature (22° C.) and illumination (light on: 07:00-19:00 h). They were allowed free access to water and a 45% high fat diet (HFD) (metabolized energy, 4.56 kcal/g) (Ssniff® EF R/M acc. D12451 (I) mod., ssniff Spezialdiaten GmbH, Soest, Germany) for seven weeks. Body weight, food intake and water intake were recorded daily (08:30-09:30 h). All procedures were approved by the Ethic Committee of our University and were in accordance with the Swiss guidelines for animal experimentation.
# To study the role of OT on metabolic homeostasis, the above male Wistar rats were rendered obese by 7 weeks of HFD 45% and were intracerebroventricularly (i.c.v.) infused with either OT (1.6 nmol/d) or saline during the last 2 weeks of the experiment.
# (§1) After three weeks of HFD feeding, rats were submitted to surgical procedures. They were anesthetized with intramuscular injection of ketamine-xylasine (Ketalar®-Rompun®, Parke-Davis and Bayer, Leverkusen, Switzerland) at 40 and 9 mg/kg, respectively, and implanted with a cannula in the right lateral cerebral ventricle fixed on the skull with dental cement, as previously described (Rohner-Jeanrenaud et al., 1989, Endocrinology 124, 733-9). After one week of recovery, the drinking response to i.c.v. injection of Angiotensin II (5 ng/μl) (Novabiochem, Laüfelfingen, Switzerland) was measured to confirm the correct placement of the cannula. At the end of the fifth week of high fat diet feeding, osmotic minipumps (Alzet®, model 2001, Alza Corporation, Cupertino, Calif.) delivering oxytocin (NeoMPS®, Strasbourg, France) or its vehicle (NaCl 0.9%) were subcutaneously implanted and connected to the i.c.v. cannula via a polyethylene catheter, as previously described (Rohner-Jeanrenaud et al., 1989, above). OT was delivered at a dose of 1.6 nmol/day/rat or 16 nmol/day/rat during 14 days. A group of vehicle-infused rats was pair-fed to the amount of food consumed by OT-infused animals in order to assess the effects of OT independently from changes in food intake. The pair-feeding regimen consisted in giving one-third of the daily food amount in the morning and the remaining two-thirds just before onset of darkness. Rats were sacrificed using isoflurane anesthesia (Halocarbon Laboratories, River Edge, N.J.) and rapid decapitation between 09:00 and 13:00 h. Blood samples were collected into EDTA-coated tubes, centrifuged and plasma stored at −20° C. Tissues were rapidly removed, freeze-clamped, and stored at −80° C.
# [2] = Plasma measurements after i.c.v. OT infusion in HFD-induced obese rats; type: in vivo, rat; settings: rat, plasma, 1.6 nmol/day/rat; i.c.v. OT 1.6 nmol/d, 14 days; mean ± SEM; read-out: plasma Oxytocin
# Experimental: as §1
# (§2) To determine the effect of OT on peripheral metabolism, levels of plasma glucose, insulin, leptin, FFA, glycerol and TG were determined. Plasma glucose was measured by the glucose oxidase method (Glu, Roche Diagnostics GmbH, Rotkreuz, Switzerland). Plasma non-esterified fatty acid (NEFA) and triglyceride (TG) levels were determined using NEFA C and TG enzymatic PAP150 commercial kits from Wako Chemicals GmbH (Neuss, Germany) and Biomérieux (Marcy l'Etoile, France), respectively. Plasma OT levels were determined using an ELISA, as previously described (Pequeux et al., 2001, Scand. J. Clin. Lab. Invest., 61, 407-415). Plasma glycerol levels were measured using the free Glycerol Reagent (Sigma).
# HFD-induced obese rats [3] = assay: as above; type: in vivo, rat
# Experimental: as §1, §2
# HFD-induced obese rats [4] = assay: High-fat diet-induced obesity rat model, subcutaneous infusion: body weight gain, food intake, body composition; type: in vivo
# Experimental: (§3) Another group of the above male Wistar rats were rendered obese as described above and were subcutaneously infused with saline or OT (NeoMPS®, Strasbourg, France) (50 nmol/day/rat) during 14 days.
# (§4) The beneficial metabolic effects of OT administration were assayed in the same high-fat diet induced obesity model in rats as in Example 1 and in PPAR-alpha knockout mice (Lee et al., 1995, Mol. Cell. Biol., 15(6):3012-22). HFD-induced obese animals, saline or OT groups (see conditions under Example 1) were subcutaneously infused via minipumps (Alzet®, as above). OT was delivered at a dose of 50 nmol/day/rat during 14 days.
# An EchoMRI-700 quantitative nuclear magnetic resonance (QMR) analyzer (Echo Medical Systems, Houston, Tex.) was used to measure total fat mass and lean body mass in rats at the beginning and the end of the treatment.
# The beneficial metabolic effects of administration of an oxytocin derivative according to the invention (Carbetocin) were assessed in the same rat model of high-fat diet induced obesity as in Example 1. HFD-induced obese animals were subcutaneously infused via minipumps (Alzet®, as above) with saline or carbetocin (Bachem) (5 nmol/day/rat or 50 nmol/day/rat) during 14 days.
# Body composition parameters were measured by quantitative nuclear magnetic resonance as described in Example 3 at the beginning and 10 days of treatment.
# HFD-induced obese rats [5] = assay: Plasma glycerol after subcutaneous OT infusion in HFD-induced obese rats; type: in vivo, rat; settings: peripheral (s.c.) OT 50 nmol/day
# Experimental: as §3, §2
# [6] = system: PPAR-alpha knockout (KO) mice; assay: Peripheral OT infusion in PPAR-alpha knockout mice; type: in vivo; settings: peripheral 50 nmol/day over 3 days
# Experimental: as §4
# OT was peripherally administered with 50 nmol/day over 3 days in PPAR-alpha knockout (KO) mice and their wild-type littermates. […] Consistently, OT peripheral infusion promoted an increase in the mRNA expression of PPAR-alpha target genes (Acadm, Acox1, Ehhadh, Ucp3) in wild-type mice, while it had no effect in PPAR-alpha knockouts.
# [7] = system: enzymes involved in lipid metabolism; assay: Tissue expression of lipid metabolism enzymes (real-time RT-PCR) after i.c.v. OT infusion; type: in vivo, rat; settings: central OT infusion
# HFD-induced obese rats [8] = assay: High-fat diet-induced obesity rat model, subcutaneous infusion: body weight gain, food intake, body composition; type: in vivo; settings: s.c. OT 50 nmol/day, 10 days, independent of food intake
# [9] = i.c.v. OT 1.6 nmol/d, 14 days, mean ± SEM
# [10] = i.c.v. OT 1.6 nmol/d, 14 days, mean ± SEM, listed as Oxytocin
compound,measurement,setting,value
"CC[C@H](C)[C@@H]1NC(=O)[C@H](Cc2ccc(O)cc2)NC(=O)[C@@H](N)CSSC[C@@H](C(=O)N2CCC[C@H]2C(=O)N[C@@H](CC(C)C)C(=O)NCC(N)=O)NC(=O)[C@H](CC(N)=O)NC(=O)[C@H](CCC(N)=O)NC1=O [OT, Cys-Tyr-Ile-Gln-Asn-Cys-Pro-Leu-Gly (SEQ ID NO: 1)]",cumulative body weight gain,HFD-induced obese rats [1]; i.c.v. 1.6 nmol/d,more than fifty percent decrease
same,cumulative food intake,HFD-induced obese rats [1]; i.c.v. 1.6 nmol/d,without any effect
same,food efficiency (ratio of body weight gain to cumulative food intake),HFD-induced obese rats [1]; i.c.v. 1.6 nmol/d,marked decrease
same,cumulative food intake,HFD-induced obese rats [1]; i.c.v. 16 nmol/d,decreased
same,body weight gain,"HFD-induced obese rats [1]; i.c.v. 16 nmol/d, not observed in pair-fed group",significantly lower
same,level at 336 h,[2],0.0218 ± 0.0058 ng/mL
same,plasma glycerol levels,HFD-induced obese rats [3]; central (i.c.v.) OT 1.6 nmol/day,increased
same,plasma 2-AG,HFD-induced obese rats [3]; [9],53 ± 4.9 pmol/mL
same,plasma AEA,HFD-induced obese rats [3]; [9],19 ± 2.3 pmol/mL
same,plasma FFA,HFD-induced obese rats [3]; [9],unchanged
same,plasma Glucose,HFD-induced obese rats [3]; [9],unchanged
same,plasma Insulin,HFD-induced obese rats [3]; [9],unchanged
same,plasma Leptin,HFD-induced obese rats [3]; [9],unchanged
same,plasma OEA,HFD-induced obese rats [3]; [9],178 ± 15 pmol/mL
same,plasma Oxytocin,HFD-induced obese rats [3]; [9],increased
same,plasma PEA,HFD-induced obese rats [3]; [9],1.63 ± 0.15 nmol/mL
same,plasma TG,HFD-induced obese rats [3]; [9],decreased
same,plasma FFA,HFD-induced obese rats [3]; [10],0.70 ± 0.06 mmol/L
same,plasma Glucose,HFD-induced obese rats [3]; [10],159.5 ± 4.1 mg/dL
same,plasma Insulin,HFD-induced obese rats [3]; [10],1.7 ± 0.3 ng/mL
same,plasma Leptin,HFD-induced obese rats [3]; [10],11.3 ± 2.2 ng/mL
same,plasma TG,HFD-induced obese rats [3]; [10],0.80 ± 0.05 mmol/L
same,food intake,"HFD-induced obese rats [4]; s.c. 50 nmol/day, 14 days",decreased
same,body weight gain,"HFD-induced obese rats [4]; s.c. 50 nmol/day, 14 days, not observed in pair-fed group",decreased
same,fat mass by weighing adipose tissue depots,HFD-induced obese rats [4]; s.c. OT 50 nmol/day,food intake-independent decrease
same,plasma glycerol levels,HFD-induced obese rats [5],increased
same,body weight gain,[6],did not modify
same,"mRNA expression of PPAR-alpha target genes (Acadm, Acox1, Ehhadh, Ucp3)",[6],no effect
same,HSL at the protein level,[7],stimulatory effect
same,expression of genes involved in fatty acid β-oxidation,[7]; liver,did not modify
same,fat mass (QMR),HFD-induced obese rats [8],significant decrease
same,percent lean body mass (QMR),HFD-induced obese rats [8],increase

# Reference: patent US9101569B2, “Methods for the treatment of insulin resistance” (UNIVERSITE DE GENEVE, priority 2010, dated 2015)
